Laboratory results from patent US20100113523A1 (priority 2008, published 2010).

How the values were obtained:
[1] = Pharmacokinetic analysis in humans (serum and urine, DART TOF-MS); format: in vivo; conditions: human, ingested in a mixture
Protocol: Five healthy consenting female adults ranging in age from 23 to 57 were took diets free of flavonoids and any NSAIDs. A certified individual collected blood samples at several time intervals between 0 and 480 min after compounds of the present invention were ingested in a mixture. Immediately after the time zero blood samples were collected, a single 100 mg dose of the composition was administered as a lozenge. Blood samples were handled with approved protocols and precautions, centrifuged to remove cells and the serum fraction was collected and frozen. Blood was not treated with heparin to avoid any analytical interference. Urine samples were collected from the same five subjects on a time course (0 to 8 h).
The cells were removed from the blood samples by centrifugation and the serum was collected. Serum samples were prepared for DART TOF-MS analysis by extraction with an equal volume of neat ethanol (USP) to minimize background of proteins, peptides, and polysaccharides present in serum. The ethanol extract was centrifuged for 10 min at 4° C., the supernatant was removed, concentrated to 200 μL volume, and 50 μL of an internal standard was added. Urine samples were not treated and used directly for DART TOF-MS. DART TOF-MS analyses were conducted as described above.

tryptase enzyme = target: T1, tryptase enzyme (Homo sapiens, UniProt P20231); assay: Tryptase inhibition (cleavage of tosyl-gly-pro-lys-pNA, absorbance at 405 nm); format: biochemical; conditions: relative to controls; 2 h at 37° C.
T1 construct: purchased Millipore Inc., Westbury, Mass
Protocol: Tryptase activity was determined by monitoring the production of chromophore p-nitroaniline (pNA) generated by the cleavage of tosyl-gly-pro-lys-pNA by the tryptase enzyme according to the manufacturer's protocol (Millipore Inc., Westbury, Mass.). In a 96-well format, 10 μL of tryptase was added to 10 μL of sample, followed by 20 μL of tosyl-gly-pro-lys-pNA and 160 μL of 1× reaction buffer and incubated for 2 h at 37° C. After the incubation, absorbance at 405 nm was measured in each well using a Tecan M200 microplate reader.

T1 sequence (P20231 31-275): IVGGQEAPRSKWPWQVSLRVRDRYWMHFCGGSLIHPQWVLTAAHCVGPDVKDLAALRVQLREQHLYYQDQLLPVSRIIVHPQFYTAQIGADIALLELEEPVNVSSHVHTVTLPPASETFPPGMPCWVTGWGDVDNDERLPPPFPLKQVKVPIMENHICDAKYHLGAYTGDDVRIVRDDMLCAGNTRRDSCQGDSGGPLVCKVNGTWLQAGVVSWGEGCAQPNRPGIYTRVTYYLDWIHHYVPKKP

Compound	time to appearance in the bloodstream (serum) after ingestion ([1]; single 100 mg lozenge) [min]	time to appearance in urine after ingestion ([1]; single 100 mg lozenge) [h]	time present in the serum post-ingestion ([1]; single 100 mg lozenge, sampling 0 to 480 min)	persistence in the urine post-ingestion ([1]; urine collected 0 to 8 h)	IC50 (tryptase enzyme) [µM]
CCCCCC/C=C/CN(c1ccc(C)cc1)c1ccc(S)cn1 [compound (V)]	≤ 10	≤ 1	up to 480 min	up to 8 h	
CCCCCC/C=C/CN(c1ccc(C)cc1)c1ccc(SSc2ccc(N(C/C=C/CCCCCC)c3ccc(C)cc3)nc2)cn1 [compound [7]]					789
